pIC50: −log10 of the molar value.
How the values were obtained:
Assay type in all cases: functional, cell-based
K562 = test: In vitro cytotoxic activity against human leukemic cell line K562 after incubation for 1 hour; details: K562, 1 h
SK-OV-3 = test: In vitro cytotoxic activity against human tumor cell line SKOV-3 after incubation for 96 hours; details: SK-OV-3, 96 h
HT-29 = test: In vitro cytotoxic activity against human tumor cell line HT-29 after incubation for 96 hours; details: HT-29, 96 h
A2780 [1] = test: In vitro cytotoxic activity against human tumor cell line A2780CisR after incubation for 96 hours; details: A2780, 96 h
A2780 [2] = test: In vitro cytotoxic activity against human tumor cell line A2780 after incubation for 96 hours; details: A2780, 96 h
CH1 = test: In vitro cytotoxic activity against human tumor cell line CH1 after incubation for 96 hours; details: CH1, 96 h

Compound | pIC50 (K562) | pIC50 (SK-OV-3) | pIC50 (HT-29) | pIC50 (A2780 [1]) | pIC50 (A2780 [2]) | pIC50 (CH1)
O=C(O[C@H]1[C@H](O)C=C[C@@H]1O)c1c(O)ccc2ccccc12 | < 4.00 | – | – | – | – | –
O=C(O[C@@H]1C=CC(=O)[C@H]1O)c1c(O)ccc2ccccc12 | 5.22 | 5.64 | 4.92 | 5.07 | 5.57 | 5.40
O=C(O[C@@H]1C=C(Br)C(=O)[C@H]1O)c1c(O)ccc2ccccc12 | 5.46 | 4.96 | < 4.60 | 4.76 | 5.00 | 4.96
COc1cc(C)c2ccc(O)c(C(=O)O[C@@H]3C(=O)C=C[C@H]3O)c2c1 | 5.35 | 5.14 | 4.89 | 5.05 | 5.03 | 4.96
O=C(O[C@@H]1C(=O)C(Br)=C[C@H]1O)c1c(O)ccc2ccccc12 | 5.30 | 5.03 | < 4.60 | 4.89 | 5.03 | 4.96
COc1cc(C)c2ccc(O)c(C(=O)O[C@H]3[C@H](O)C=C[C@@H]3O)c2c1 | < 4.00 | – | – | – | – | –
O=C(O[C@@H]1C=C[C@H](O)[C@H]1O)c1c(O)ccc2ccccc12 | < 4.00 | – | – | – | – | –
COc1cc(C)c2ccc(O)c(C(=O)O[C@@H]3C=C[C@H](O)[C@H]3O)c2c1 | < 4.00 | – | – | – | – | –
COc1cc(C)c2ccc(O)c(C(=O)O[C@@H]3C=CC(=O)[C@H]3O)c2c1 | 5.30 | 5.60 | 4.96 | 5.40 | 5.60 | 5.60
O=C(O[C@@H]1C(=O)C=C[C@H]1O)c1c(O)ccc2ccccc12 | 5.40 | 5.51 | 4.92 | 5.03 | 5.43 | 5.24

— ChEMBL document CHEMBL1144956, “Chemical synthesis and cytotoxicity of dihydroxylated cyclopentenone analogues of neocarzinostatin chromophore” (Bioorg Med Chem Lett, 2003)
